According to PubChem BioAssay (NCI):
Several values for one entry are separate records, joined by “and”; a condition that tells them apart may be missing. Equal values may be shown once.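 Grown in 96-well plates, cells were treated for 48 hours with each compound at five concentrations. Insufficient inhibition: endpoint recorded as highest concentration tested. The concentration for 50% growth inhibition is given as GI50. The concentration for full growth arrest is given as TGI.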

Experiments:
Assay in all cases: NCI anticancer screen, dose series, 48 h
ACHN renal = tested on: ACHN renal
HCT-15 colon = tested on: HCT-15 colon
K-562 leukemia = tested on: K-562 leukemia
MALME-3M melanoma = tested on: MALME-3M melanoma
MOLT-4 leukemia = tested on: MOLT-4 leukemia
NCI-H226 lung = tested on: NCI-H226 lung
OVCAR-4 ovarian = tested on: OVCAR-4 ovarian
OVCAR-5 ovarian = tested on: OVCAR-5 ovarian
PC-3 prostate = tested on: PC-3 prostate
UACC-62 melanoma = tested on: UACC-62 melanoma

| SMILES | GI50 (ACHN renal) | TGI (ACHN renal) | GI50 (HCT-15 colon) | TGI (HCT-15 colon) | GI50 (K-562 leukemia) | TGI (K-562 leukemia) | GI50 (MALME-3M melanoma) | TGI (MALME-3M melanoma) | GI50 (MOLT-4 leukemia) | TGI (MOLT-4 leukemia) | GI50 (NCI-H226 lung) | TGI (NCI-H226 lung) | GI50 (OVCAR-4 ovarian) | TGI (OVCAR-4 ovarian) | GI50 (OVCAR-5 ovarian) | TGI (OVCAR-5 ovarian) | GI50 (PC-3 prostate) | TGI (PC-3 prostate) | GI50 (UACC-62 melanoma) | TGI (UACC-62 melanoma) |
| --- | --- | --- | --- | --- | --- | --- | --- | --- | --- | --- | --- | --- | --- | --- | --- | --- | --- | --- | --- | --- |
| COc1ccc2c3c(c(OCCCN(C)C)nc2c1)-c1ccc(Cl)cc1C3=O | 1.26 µM | 4.26 µM | 1790 nM | 10.6 µM | 2380 nM | > 100 µM | 10.7 µM | 26.4 µM | 833 nM | 38.2 µM | 3.52 µM | 21.7 µM | 2.83 µM | 17.2 µM | 9.66 µM | 22.9 µM | 4.72 µM | 19.4 µM | 10.7 µM | 23.6 µM |
| O=C1/C(=C/c2cccs2)CCC/C1=C\c1cccs1 | 57 µM | > 100 µM | > 100000 nM | > 100 µM | > 100000 nM | > 100 µM | > 48.8 µM | > 100 µM | > 100000 nM | > 100 µM | 49.1 µM | > 100 µM | 14.6 µM | 45.2 µM | > 100 µM | > 100 µM | 37.7 µM | > 100 µM | > 54.3 µM | > 100 µM |
| CC(=O)Oc1cccc2c1C(=O)c1c(OC(C)=O)cc(C)cc1C2=O | – | > 100 µM | – | > 100 µM | – | > 100 µM | – | > 100 µM | – | > 100 µM | – | > 100 µM | – | > 100 µM | – | > 100 µM | – | > 100 µM | – | > 100 µM |
| N#Cc1nc(-c2ccccc2)oc1S(=O)(=O)N1CCOCC1 | 1.76 µM | 3.15 µM | 1450 nM | 3.39 µM | 2030 nM | > 100 µM | 1.59 µM | 3.15 µM | 2010 nM | 5.08 µM | 3.67 µM | 16.1 µM | 2.73 µM | 9.2 µM | 13.6 µM | 27.6 µM | 5.79 µM | 20.8 µM | 9.33 µM | 21.4 µM |
| COc1ccc(/C=C2\COc3ccc(-c4ccccc4)cc3C2=O)cc1O | 3.13 µM | 13.1 µM | 1690 nM | 4.37 µM | 3600 nM | > 100 µM | 1.04 µM | 4.31 µM | 2340 nM | 83.6 µM | 15.3 µM | 32.9 µM | 4.18 µM | 30.8 µM | 4.13 µM | 14.7 µM | 3.41 µM | > 100 µM | 3.59 µM | 18.1 µM |
| Cc1nc(NC(=O)N2CCC[C@H]2C(N)=O)sc1-c1ccnc(C(C)(C)C(F)(F)F)c1 | 5.6 µM and > 10 µM | > 100 µM | 1360 nM and 2810 nM | 47 µM and > 10 µM | 28100 nM and > 10000 nM | > 100 µM | 1.8 µM and > 10 µM | 22.4 µM and > 10 µM | 2490 nM and 2940 nM | 28.2 µM and > 10 µM | 5.26 µM and 4.54 µM | 45.7 µM and > 10 µM | 13.3 µM and > 10 µM | > 75.3 µM | 0.776 µM and 1.02 µM | 57.4 µM and > 10 µM | 2.19 µM and 3.61 µM | 25.4 µM and > 10 µM | 3.18 µM and 3.05 µM | 18.7 µM and > 10 µM |
| CC#CC(=O)N1CCC[C@H]1c1nc(-c2ccc(C(=O)Nc3ccccn3)cc2)c2c(N)nccn12 | 23.8 µM | > 100 µM | > 72300 nM | > 100 µM | > 88200 nM | > 100 µM | 36.2 µM | > 100 µM | 44300 nM | > 100 µM | > 65.4 µM | > 100 µM | 58 µM | > 100 µM | > 100 µM | > 100 µM | > 84.8 µM | > 100 µM | 34.8 µM | > 100 µM |
| O=C(/C=C\c1ccnc2ccccc12)c1ccc([N+](=O)[O-])cc1 | 14.6 µM | > 100 µM | 2550 nM | 9.2 µM | 2470 nM | 18 µM | 57.2 µM | > 100 µM | 4210 nM | > 83 µM | 6.35 µM | > 100 µM | 3.71 µM | > 100 µM | > 60.6 µM | > 100 µM | 8.62 µM | 48.2 µM | 12.5 µM | > 86.3 µM |
| COc1ccc(/C=C2\N=C3SC=C(N)N3C2=O)cc1 | 0.711 µM | 2.43 µM | 817 nM | 3.98 µM | 1560 nM | 17.3 µM | 0.23 µM | 1.52 µM | 280 nM | 2.91 µM | 1.16 µM | 7.04 µM | 0.485 µM | 11 µM | 2.13 µM | 12 µM | 0.559 µM | 3.57 µM | 1.07 µM | 2.76 µM |
| CC(=O)N1CC(F)(F)c2c(Sc3ncc(N4CCC5(CC4)COC[C@H]5N)nc3N)cccc21 | 9.03 µM | 51.4 µM | 24000 nM | 96.8 µM | 2110 nM | 20.7 µM | 15.5 µM | 31.5 µM | 21100 nM | 67.7 µM | 20.9 µM | > 100 µM | 10.5 µM | 96.6 µM | 15.4 µM | > 100 µM | 29.8 µM | > 100 µM | 18 µM | 36.1 µM |
